Reference: patent US10725055B1, “Compounds for carbonyl sulfide/carbon disulfide/hydrogen sulfide release and methods of making and using the same” (University of Oregon, priority 2016, dated 2020)
Entries after “also recorded” stand apart in the source; their conditions may differ. Like-named read-outs stand apart in the source and are kept apart here.

Experiments:
BEAS 2B cells [1] = assay: Bioenergetic analysis in cultured cells (XF24 Extracellular Flux Analyzer); type: cell-based, human; conditions: for inhibition of cellular bioenergetics: same conditions, 1, 3, 10 μM; for ATP synthesis / maximal respiration / oxygen consumption linked with basal respiration: 1, 3, 10 μM, 24 hours
Source text: Cells were then washed with PBS.

BEAS 2B cells [2] = test system: BEAS 2B cells
BEAS 2B cells [3] = conditions: for LDH levels: 10 μM, 24 hours
Procedure: Lactate dehydrogenase (LDH) release was determined as a cytotoxicity assay, a measurement of necrotic cell death, as described previously. Briefly, 30 μL of supernatant was saved before addition of MTT and mixed with 100 μL of freshly prepared LDH assay reagent to reach final concentrations of 85 mM lactic acid, 1040 mM nicotinamide adenine dinucleotide (NAD+), 224 mM N-methylphenazonium methyl sulfate (PMS), 528 mM 2-(4-lodophenyl)-3-(4-nitrophenyl)-5-phenyl-2H-tetrazolium chloride (INT) and 200 mM Tris (pH 8.2). The changes in absorbance were read kinetically at 492 nm for 15 min (kinetic LDH assay) on a monochromator-based reader (Powerwave HT, Biotek) at 37° C. LDH activity values are shown as Vmax for the kinetic assays in mOD/min.

[4] = target: CA from bovine erythrocytes (Bos taurus, UniProt P00921); type: biochemical
Sequence of CA from bovine erythrocytes (P00921 whole entry): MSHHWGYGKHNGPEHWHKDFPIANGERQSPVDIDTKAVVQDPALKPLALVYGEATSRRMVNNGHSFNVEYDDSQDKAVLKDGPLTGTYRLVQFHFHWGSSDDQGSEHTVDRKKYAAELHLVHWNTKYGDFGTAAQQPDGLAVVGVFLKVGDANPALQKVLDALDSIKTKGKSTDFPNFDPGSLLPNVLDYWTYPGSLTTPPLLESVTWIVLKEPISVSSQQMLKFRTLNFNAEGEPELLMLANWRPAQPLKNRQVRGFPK

[5] = Fluorescence response of MeRho-TCA to NaSH and other RSONs
HeLa cells [6] = assay: Cytoprotection against H2O2-induced oxidative stress, CCK-8; type: cell-based; conditions: H2O2 100 μM, compound 10-50 μM, 1 hour
HeLa cells [7] = assay: Cytotoxicity in HeLa cells, CCK-8; conditions: 10-100 μM, 2 hour incubation
[8] = not given; remark: listed apart in the source
HeLa cells [9] = conditions: 50 μM compound
RAW 264.7 cells = conditions: 50 μM compound
[10] = H2O2-triggered H2S release from PeroxyTCM/TCM compounds, H2S electrode; conditions: for H2S release efficiency: 50 μM compound; for H2S release upon treatment with H2O2: PBS pH 7.4, CA 25 μg/mL
[11] = H2S release from photo-triggerable compounds under UV light, methylene blue (MB) assay; conditions: for peaking time for H2S release: 50 μM, LED UV light 365 nm, PBS pH 7.4, CA 25 μg/mL
[12] = NMR monitoring of self-immolation after TCEP reduction; type: physicochemical; conditions: 1H, 13C{1H}, 19F NMR
Source text: In some embodiments, an azide in the para position of the benzylthiocarbamate was used to function as the H2S-responsive “trigger” for self-immolation and COS release. To facilitate NMR identification of the products, azidobenzylthiocarbamate (donor compound 1 of FIG. 2) was made with a p-fluoroaniline payload, and the corresponding carbamate (donor compound 2 of FIG. 2) as a control donor compound. Although donor compound 2 should undergo the same self-immolative decomposition upon azide reduction, it will release CO2 rather than COS, and thus should not result in H2S donation upon reaction with CA. […] The disappearance of the benzylic peak, loss of the thiocarbonyl carbon peak, and formation of new resonances upon self-immolation by NMR spectroscopy (FIGS. 3A-3C) confirmed that self-immolation occurs. All such changes were observed within 5 minutes of TCEP addition, confirming the rapid self-immolation of the scaffold upon reduction, and were consistent with COS release from the thiocarbamate scaffold upon azide reduction.

[13] = H2S release from azidobenzyl thiocarbamate/carbamate after TCEP reduction in presence of CA, H2S electrode; conditions: buffer containing CA; for H2S release upon injection of TCEP: TCEP added
[14] = Total sulfide in whole mouse blood, monobromobimane (mBB) method; conditions: 25 μM compound, 30 minutes incubation with excess TCEP
BEAS 2B cells [15] = test system: BEAS 2B cells; remark: listed apart in the source
[16] = absence of esterase
[17] = test system: porcine liver esterase (PLE); assay: Esterase (PLE)-triggered H2S release, H2S-selective electrode
[18] = test system: porcine liver esterase (PLE); assay: H2S release from 5 detected with H2S-responsive fluorescent probe MeRho-Az; conditions: 50 μM compound, 5 μM MeRho-Az, CA, 1 U/mL PLE
[19] = at concentrations lower than 30 μM
[20] = COS gas in 10 mM PBS, pH 7.4, no CA

O=C(CCCCCCCCC[P+](c1ccccc1)(c1ccccc1)c1ccccc1)Oc1ccc(-c2cc(=S)ss2)cc1.[Br-] [AP39, reference compound]
inhibition of cellular bioenergetics (BEAS 2B cells [1]): No significant inhibition of cellular bioenergetics
cytotoxicity, MTT assay (BEAS 2B cells [2]; at 30 μM): minimal cytotoxicity
cytotoxicity, MTT assay (BEAS 2B cells [2]; [19]): none
cytotoxicity, LDH assay (BEAS 2B cells [3]; at 30 μM): minimal cytotoxicity
cytotoxicity, LDH assay (BEAS 2B cells [3]; [19]): none

O=C=S [COS, carbonyl sulfide]
H2S production from COS ([4]; COS gas in deoxygenated PBS, 1 mM CTAB, pH 7.4, with CA): rapid H25 production
H2S formation from COS ([4]; buffer in the absence of CA): negligible current; also recorded: minimal H2S formation
H2S from COS after H2O2 addition [20]: rapid H2S generation
H2S from COS prior to H2O2 addition [20]: No H2S was detected

C1COCCN1.COc1ccc(P(=S)(S)N2CCOCC2)cc1 (stereo not shown) [GYY4137, reference compound]
inhibition of cellular bioenergetics (BEAS 2B cells [1]): No significant inhibition of cellular bioenergetics
cytotoxicity, MTT assay, compared to DMSO vehicle (BEAS 2B cells [2]; up to 30 μM): no significant cytotoxicity
cytotoxicity, LDH assay, compared to DMSO vehicle (BEAS 2B cells [3]; up to 30 μM): no significant cytotoxicity

[N-]=[N+]=Nc1ccc(COC(=S)Nc2ccc3c(c2)Oc2ccccc2C32OC(=O)c3ccccc32)cc1 (stereo not shown) [MeRho-TCA, O-(4-Azidobenzyl)-N-methylrhodolthiocarbamate]
fluorescence turn-on ([5]; 50 equivalents of NaSH, PBS, 1 mM CTAB, pH 7.4, over 90 minutes): 65 fold
selectivity of fluorescence response ([5]; vs Cys, GSH, Hcy, S2O3 2-, SO3 2-, SO4 2-, H2O2, NO): excellent selectivity for H2S over other RSONs

CC1(C)OB(c2ccc(COC(=O)Nc3ccc(F)cc3)cc2)OC1(C)C [PeroxyCM-1]
cell viability / protection against H2O2-mediated oxidative stress (HeLa cells [6]): attenuated rescue from oxidative stress
cell viability (cytotoxicity) (HeLa cells [7]): No significant decrease in cell viability

CC1(C)OB(c2ccc(COC(=S)Nc3ccc(F)cc3)cc2)OC1(C)C [PeroxyTCM-1]
cell viability / protection against H2O2-mediated oxidative stress (HeLa cells [6]): significant dose-dependent increase of cell viability
cell viability (cytotoxicity) (HeLa cells [7]): No significant decrease in cell viability
H2S release after incubation with H2O2, O2−, or ONOO− ([8]; 50 μM compound, RSONS 500 μM, CA 25 μg/mL, 20 min): resulted in H2S release
H2S release after incubation with other RSONS ([8]; ClO−, HO, 1O2, TBHP, tBuO, Cys, GSH, GSSG, GSNO, NO2, SO4 2−, S2O3 2−, NO, HNO): failed to release H2S
H2S release with H2O2 in the absence of CA (H2O2 10 equiv, no CA): positive H2S release response
HSN2 fluorescence after addition of H2O2 (HeLa cells [9]; H2O2 25 μM or 50 μM): H2O2 dose-dependent increase in HSN2 fluorescence
HSN2 fluorescence in the absence of H2O2 (HeLa cells [9]; HSN2 5 μM): no HSN2 fluorescence was observed
HSN2 signal after addition of PMA (RAW 264.7 cells; 500 nM PMA): significant increase in signal from HSN2
HSN2 signal in the absence of PMA (RAW 264.7 cells; HSN2 5 μM): no fluorescent signal from HSN2
H2S release efficiency ([10]; 250 μM H2O2): 80%
H2S release efficiency ([10]; 500 μM H2O2): 60%

O=C(Nc1ccc(F)cc1)OCc1ccccc1[N+](=O)[O-] [PhotoCM-1]
H2S release upon UV irradiation with CA ([11]; UV 10 min, CA 25 μg/mL): no H2S release was observed

O=[N+]([O-])c1ccccc1COC(=S)Nc1ccc(F)cc1 [PhotoTCM-1]
peaking time for H2S release [11]: ~10 min
H2S generation in the absence of UV irradiation ([11]; PBS pH 7.4, no UV): did not generate H2S
H2S release upon UV irradiation with CA ([11]; UV 10 min, CA 25 μg/mL): significant enhancement of H2S concentration
H2S upon UV irradiation in the absence of CA ([11]; UV 10 min, no CA): low levels of H2S
H2S upon UV irradiation with CA and acetazolamide (AAA) ([11]; UV, CA 25 μg/mL, AAA 10 μM): significantly reduced
H2S generation with cellular nucleophiles ([11]; cysteine, homocysteine, GSH, GSSG, serine, lysine, in the presence of CA): does not generate H2S

COc1cc(COC(=S)Nc2ccc(F)cc2)c([N+](=O)[O-])cc1OC [PhotoTCM-2]
peaking time for H2S release [11]: ~10 min

Fc1ccc(NC(=S)OCc2ccccc2)cc1 [TCM-1]
H2S release upon UV irradiation with CA ([11]; UV 10 min, CA 25 μg/mL): did not release H2S
cell viability / protection against H2O2-mediated oxidative stress (HeLa cells [6]): no protection
cell viability (cytotoxicity) (HeLa cells [7]): No significant decrease in cell viability
H2S release upon treatment with H2O2 [10]: did not release H2S

Cc1ccc(NC(=S)OCc2ccccc2)cc1 [TCM-2]
H2S release upon treatment with H2O2 [10]: did not release H2S

[N-]=[N+]=Nc1ccc(COC(=S)Nc2ccc(F)cc2)cc1 [compound 1, O-(4-Azidobenzyl)-N-(4-fluorophenyl)thiocarbamate]
time to NMR changes showing self-immolation after TCEP addition [12]: ≤ 5 min
H2S release upon injection of TCEP [13]: rapid release of H2S
H2S formation before TCEP ([13]; no TCEP): did not result in H2S formation; also recorded: no H2S is formed

[N-]=[N+]=Nc1ccc(COC(=O)Nc2ccc(F)cc2)cc1 [compound 2, O-(4-Azidobenzyl)-N-(4-fluorophenyl)carbamate]
H2S release upon injection of TCEP [13]: no H2S was produced

Cc1ccc(NC(=S)OCc2ccccc2)cc1 [compound 3, O-(4-Benzyl)-N-tolylthiocarbamate]
total sulfide levels in blood [14]: Only samples containing donor 4 with the azide trigger increased total sulfide levels

Cc1ccc(NC(=S)OCc2ccc(N=[N+]=[N-])cc2)cc1 [compound 4]
total sulfide levels in blood [14]: increased total sulfide levels in blood

Cc1ccc(NC(=S)OCc2ccc(OC(=O)C(C)(C)C)cc2)cc1 [compound 5]
ATP synthesis (BEAS 2B cells [1]): negatively affected
maximal respiration (BEAS 2B cells [1]): negatively affected
oxygen consumption linked with basal respiration (BEAS 2B cells [1]): negatively affected
LDH levels (BEAS 2B cells [3]): increase in LDH levels
cytotoxicity during live cell imaging (BEAS 2B cells [15]): high cytotoxicity
stability in aqueous solution [16]: stable
H2S release with PLE ([17]; 1 U/mL PLE in the presence of CA): immediate H2S release
H2S release with increased PLE ([17]; 20 U/mL PLE, otherwise identical conditions): significantly faster H2S release
rate of H2S production with acetazolamide (AAA) ([17]; PLE, CA, CA inhibitor AAA): significantly reduced the rate of H2S production
H2S generation without esterase ([17]; pH 7.4 PBS, CA 25 μg/mL, no PLE): did not result in H2S generation
fluorescence response of MeRho-Az [18]: fluorescence turn-on consistent with H2S release

Cc1ccc(NC(=O)OCc2ccc(OC(=O)C(C)(C)C)cc2)cc1 [compound 6]
ATP synthesis (BEAS 2B cells [1]): increases
maximal respiration (BEAS 2B cells [1]): did not negatively impact
oxygen consumption linked with basal respiration (BEAS 2B cells [1]): increases
LDH levels (BEAS 2B cells [3]): not observed

NC(=S)OCc1ccccc1 [compound 7]
ATP synthesis (BEAS 2B cells [1]): no effect
maximal respiration (BEAS 2B cells [1]): only slightly decreased maximal respiration at 10 μM
oxygen consumption linked with basal respiration (BEAS 2B cells [1]): no effect
cell viability (MTT reduction) (BEAS 2B cells [2]; 10 μM, 24 hours): not observed
LDH levels (BEAS 2B cells [3]): not observed
direct cleavage of benzyl thiocarbamate moiety by PLE ([17]; control lacking the ester trigger): not cleaved directly by PLE
